Earlier results on 2 molecules are cited in patent US20230049822A1, “COMPOSITIONS COMPRISING NICLOSAMIDE FOR USE IN TREATING CONDITIONS ASSOCIATED WITH AN ABNORMAL INFLAMMATORY RESPONSE” (First Wave Bio, Inc., priority 2020, published 2023).

Where a name gives a salt, the structure may show the parent alone.

One series has as its system murine models of IBD. The note with it: see WO 2017/040864.
Series [1] deals with pathogenic T cells isolated from IBD patients. The following applies: see WO 2017/040864.

Consider `O=C(Nc1ccc([N+](=O)[O-])cc1Cl)c1cc(Cl)ccc1O` [Niclosamide, 5-chloro-N-(2-chloro-4-nitrophenyl)-2-hydroxybenzamide], for which the solubility in acetone entry is on record as “soluble”; the “solubility in ether, ethanol and chloroform” value is listed as “sparingly soluble”. Moreover, in the series with murine models of IBD, the “efficacy in murine models of IBD” value is on record as “effective”. In series [1], the “killing of pathogenic T cells” value is “kills pathogenic T cells”. For the same molecule, the water solubility (at 20° C.) is 5 to 8 µg/mL.

Take `O=C(Nc1ccc([N+](=O)[O-])cc1Cl)c1cc(Cl)ccc1O` [ethanolamine salt, 5-chloro-N-(2-chloro-4-nitrophenyl)-2-hydroxybenzamide with 2-aminoethanol (1:1)]: the “dissolves in distilled water” value (distilled water, 20° C.) is 180 to 280 mg/L.
